Structure (SMILES)	melting point [°C]
CC(C)(C)OC(=O)NCc1cccc(-c2nc(=O)c3ccccc3s2)n1	160 to 162
N#Cc1cccc(C[C@H](N)C(=O)O)c1	248 to 250
Oc1cc(O)cc(CN/C=C2\CN=Cc3ccc(Br)cc32)c1	263 to 264
Clc1ccc(C2(c3ccccc3)OC2n2ccnc2)c(Cl)c1 (stereo unspecified)	135 to 137
CC(C)Cn1c(=O)n(C)c(=O)c2c(C#CCCCO)n(Cc3cccc4ccccc34)cc21	176 to 177
CCc1cc(OC)cc2nc(-c3cccnc3N3CC[C@H](N(C)C)C3)oc(=O)c12	148 to 155
CC(=O)N1CCc2cc(Br)cc(N)c21	154 to 155
CSc1[nH]n(C2CCCC2)c2nc(-c3ccncc3)nc(=O)c1-2	272 to 274
CN(O)CC1=C(n2ccccc2=O)c2cc([N+](=O)[O-])ccc2OC1(C)C	159
O=C(OC1CCN(Cc2ccccc2)CC1)c1cccc(I)c1	101 to 103
CNC1=NS(=O)(=O)N=C1NCCSCc1ccc(CN(C)C)s1	60.5 to 66
Cc1ccc(Oc2c(Cl)c(Oc3ccc(C)cc3)c(Oc3ccc(C)cc3)c(C#N)c2C#N)cc1	142 to 145
COc1cccc(OC(c2ccccc2)C(O)C(=O)NC(C)C)c1 (stereo unspecified)	118 to 120
CCOC(=O)C(=O)c1cn(CCCNC(=O)OC(C)(C)C)c2ccccc12	89 to 90
O=C(NO)c1ccc(I)cc1O	195 to 196
COc1ccccc1SCc1c(C(C)C)nc(C(C)C)c(CO)c1-c1ccc(F)cc1	129 to 131
CCOC(=O)Nc1csc2cc(OCc3ccccc3)ccc12	129 to 130
O=C(O)C1=Cc2cccc(F)c2OC1C(F)(F)F (stereo unspecified)	198 to 210
NCC1Cc2cc(-c3cccc(F)c3)cc(F)c2O1 (stereo unspecified)	> 250
COC(=O)c1ccc(OCC(=O)c2cc3cc(C(C)C)ccc3o2)cc1	95 to 97
c1ccc2c(c1)OCC(CN1CCC(CNc3nc4ccccc4s3)CC1)O2 (stereo unspecified)	133
c1ccc(C2CCNCc3ccccc3O2)cc1 (stereo unspecified)	73 to 74
CCCCCCCCCCC=Cc1cnn(C(C(=O)Nc2c(C(C)C)cccc2C(C)C)c2ccccc2)c1 (stereo unspecified)	158
O=C(/C=C/C=C(c1cccc(C(F)(F)F)c1)c1cccc(C(F)(F)F)c1)NCCCCc1cccnc1	89 to 90
COc1ccc(C=O)cc1OCc1nc(-c2ccco2)oc1C	125 to 126
COc1cc(OC)c(OC)cc1CN[C@@H](C(=O)O)[C@H](O)[C@H](Cc1ccccc1)NC(=O)OC(C)(C)C	206

Structure (SMILES)	melting point [°C]
CC(=O)N1CCC(C(=O)Nc2ccc(-n3nc(C(F)(F)F)cc3C(F)(F)F)cc2)CC1	94 to 95
CC1(C(=O)O)CCCc2c(-c3ccc(Cl)cc3)noc2C1 (stereo unspecified)	232 to 235
CNC(=O)Oc1cnn(C(C)C)c1	40
CN(c1cccc2cc(-c3ncc(CN4CCC5(CC4)CNC(=O)O5)s3)[nH]c12)S(=O)(=O)c1cccs1	224
COc1cccc2c1C13CCN(C(=O)OCC(Cl)(Cl)Cl)C(C2)C1(C(=O)OCC(Cl)(Cl)Cl)CCC(=O)C3 (stereo unspecified)	115 to 116
O=C(Nc1ccc(C2=CCN(C(=O)Nc3ccc(OCCO)cc3Cl)CC2)cc1)Nc1ccccc1F	173 to 178
CCCCc1nc2sc(Cl)cc2c(=O)n1CCC	67 to 69
CCCCc1c(CN2C(=O)c3ccccc3C2=O)c(CC(C)C)nc2ccc(OCc3ccccc3)cc12	166 to 168
COC(=O)c1ccc2c3cccc4cccc(c5ccc(C(=O)OC)c1c25)c43	256 to 257
CN(C)c1nc(-c2ccccc2O)cs1	201 to 204
Cc1nn(-c2c(Cl)cc(C(F)(F)F)cc2Cl)c(N)c1C#C[Si](C)(C)C	121 to 123
Cc1cc(Cl)cc(C(=O)NC2(C)CSC2)c1NC(=O)c1cc(C(F)(F)F)nn1-c1ncccc1Cl	238 to 241
Cc1c(C)c2c(c(C)c1O)CCC(C)(C(=O)NN(C)C)O2 (stereo unspecified)	145 to 146
CCNC(=N)NC(=O)Cc1ccccc1OC	127 to 128
O=[N+]([O-])c1ccc(Oc2c(Cl)cc(C(F)(F)F)cc2Cl)cc1SCc1ccccc1	207
CC(=O)Oc1cccc2c1C(=O)c1c(OC(C)=O)cc(C#N)cc1C2=O	218 to 220
Cn1cc(C(=O)NCc2ccc(Cl)cc2)c(=O)c2cc(I)ccc21	205 to 208
O=Cc1c[nH]c2c1ccc1c3cc(-c4ccc(C(F)(F)F)cc4)ccc3[nH]c12	> 250
CC[C@H](NC(=O)OC(C)(C)C)c1nc2c(C(F)(F)F)cccc2c(=O)o1	136 to 138
Cc1cnc(NC(=O)[C@H]2[C@H](c3ccccc3)C2(C)C)s1 (relative stereo)	132 to 135
Clc1cc(C(Cl)(Cl)Cl)nc(C(Cl)(Cl)Cl)c1	101 to 102
O=C(O)CCCCCOc1nc(-c2ccccc2)c2ccccc2n1	112 to 114
CNC(=O)C(=O)CCCCCCSc1ccc2ccccc2c1	94 to 95
CC(C)C[C@H](NC(=O)[C@@H]1CCCN1C(=O)[C@@H](N)CSCc1ccccc1)C(=O)NCC(N)=O	130 to 134
CC(=O)NC[C@H]1CN(c2ccc(C3CCOCC3)cc2)C(=O)O1	185 to 187
CC1SC(=O)NN=C1c1cccc(N)c1 (stereo unspecified)	167 to 170

Structure (SMILES)	melting point [°C]
Cc1ccccc1CNc1cc(Br)cc2c1nc(C)n2C	128 to 129
C=C1N=C(c2ccccc2F)c2cc(Cl)ccc2C(=O)C1N(C)C (stereo unspecified)	224 to 226
COC(=O)c1cccc(-c2nc(COc3ccc(CON4CC(C=O)=CN4c4ccccc4)cc3OC)c(C)o2)c1	164 to 165
Nc1c(C(=O)O)c(=O)[nH]c2ccccc12	> 250
CCOC(=O)c1c(C)cc2nc(CO)n(-c3ccc4c(c3)OCO4)c(=O)c2c1C	159 to 161
O=C1CCC2(CN1)C(=O)C(=O)c1ccccc12 (stereo unspecified)	227 to 228
CC(C)(c1cc(F)ccc1O)c1cc(Cl)ccc1O	125
C=CCN1C(=O)C(F)N=C(c2ccccc2)c2cc(Cl)ccc21 (stereo unspecified)	138 to 140
Cc1nc2ccccc2c(=O)n1CCN1CCC(C(=O)c2ccc(F)cc2)CC1	165
O=c1[nH]c2ccc(Cl)cc2c(=O)n1CCCS	255 to 257
COC(=O)C(C)c1ccc(-c2ccccc2)c(O)c1 (stereo unspecified)	106 to 108
NC(CCCCCCCCC(N)=NO)=NO	182
CC(C)(C)c1ccccc1-n1cnnc1C(F)(F)F	120
CCc1cc(Br)cc2nc3c(=O)[nH][nH]c(=O)c3c(O)c12	208 to 210
COc1cc(OC)c(/C=C/S(=O)(=O)Nc2ccc(OC)c(NC(C)=O)c2)c(OC)c1	296 to 298
CC(C)(C(=O)c1ccc(Cl)cc1)n1ncn(-c2ccc(N3CCN(Cc4ccccc4)CC3)cc2)c1=O	150
CCOc1ncc(C(C)=O)cc1C(=O)Nc1c(C(N)=O)nn(C2CN(C(=O)OC(C)(C)C)C2)c1CC	220 to 223
CCN=C(N)N(CC)N=C(C=Cc1ccc(OC(F)F)cc1)C=Cc1ccc(OC(F)F)cc1	97 to 99
CN1CC[C@H](CP(=O)(O)O)C[C@@H]1C(=O)O (relative stereo)	256 to 260
C[C@@H]1CN(c2ccc3nc(-c4ccc(F)cc4)c(-c4ccnc5[nH]ccc45)n3n2)CCN1	285 to 287
CN1CC(CCCl)Sc2ncccc2C1=S (stereo unspecified)	160 to 162
CCN(CCc1ccc(Nc2ncc3c(n2)-c2ccccc2C(c2cccc(Br)c2)C3)cc1)C(C)C (stereo unspecified)	67 to 69
COCCN(C)C1=N/C(=C\c2c[nH]c3ncc(Cl)cc23)C(=O)N1	281
CN1CC=C(C(=O)N2c3ccccc3NC(=O)c3cscc32)CC1	210 to 212
Cc1cccc(NC(=O)NC2CN(C(=O)C(C)(C)C)c3ccc(C)cc3N(CC(=O)c3ccccc3C)C2=O)c1 (stereo unspecified)	218 to 220
O=C(O)Cc1cn(CCc2ccc(OCc3ccccc3)cc2)nc1-c1ccccc1	199 to 200

Structure (SMILES)	melting point [°C]
C#CCOc1cc(-c2ccccc2)ncn1	65.1
COC(=O)C1CCSSC(C)(C)C(=O)N1 (stereo unspecified)	110 to 112
NC(=O)c1cccc(C=CC(=O)O)c1	> 260
Cc1ccc(C)n1Nc1ccc(N2CCSCC2)nn1	203
COc1ccc(CNc2ncnc3c2ncn3C2OC(CNC(C)=O)C(O)C2O)cc1 (stereo unspecified)	121 to 122
COc1cc(OC)c2cc(S(=O)(=O)Cc3ccc(OC)c([N+](=O)[O-])c3)c(=O)oc2c1	224 to 225
Cc1cc2c(cc1N1CCCCC1)OC(=O)C2C (stereo unspecified)	61 to 63
O=c1oc2ccccc2nc1-c1cc(O)c(O)c([N+](=O)[O-])c1	120
O=C1Nc2cc(Cl)ccc2OC1CCO (stereo unspecified)	135 to 138
COc1ccc(Cn2cnc3c(-c4ccco4)nc(C(C)=O)nc32)cc1	166 to 167
Clc1nc(-c2ccco2)nc2ccccc12	116 to 118
O=c1[nH]c(-n2cccn2)nc2ccccc12	148 to 150
O=C(c1ccccc1)N1CC(c2ccccc2)c2ccccc21 (stereo unspecified)	127 to 129
Cc1ncc2n1-c1ccc(Br)cc1C(c1ccccn1)=NC2	189 to 190
O=C(O)c1nn(-c2ccccc2)c2c1C(N1CCOCC1)c1ccccc1-2 (stereo unspecified)	244 to 245
CC1=C(C)C(=O)C(CC[C@](C)(O)CO)=C(C)C1=O	109 to 112
CN(C)Cc1ccccc1C(O)c1ccsc1 (stereo unspecified)	77 to 78
C=C1CC(COc2cccc3ccc(C)nc23)(c2ccc(Cl)cc2)OC1=O (stereo unspecified)	129 to 130
CN(C)C(=O)C(C#N)=C1Nc2ccccc2O1	196
OCc1nc(/C=C/c2ccccc2)ns1	119 to 120
Cc1ccccc1CNc1c2c(nc3ccccc13)CCCC2O (stereo unspecified)	167 to 169
Cc1ccnc2[nH]c(=O)c(CC(=O)N(CCNC(=O)OC(C)(C)C)CC(=O)O)cc12	133 to 136
C#CCOc1ccccc1-n1cnc2cc(Nc3nnc(C)c4ccccc34)ccc21	88 to 90

Reference: a melting point compilation (Tetko et al.; mined from patent text by program, amines drawn as free bases though some values may be those of a salt)
